Test results reported in patent US20250059140A1, “C19 D[…], AND PREPARATION METHOD AND APPLICATION THEREOF” (SOUTHWEST JIAOTONG UNIVERSITY, priority 2022, published 2025).
“Also recorded” adds a separate entry of the source. Like-named read-outs stand apart in the source and are kept apart here.

Assays:
isolated bullfrog hearts = test: Cardiotonic effect on isolated bullfrog hearts in vitro; settings: for Cardiotonic effect compared with the positive control: 0.005 mol/L versus positive control at 0.01 mol/L; for activation at 5000 µM: isolated bullfrog heart, tested concentration 0.005 mol/L; for Average increase rate (%) (average amplitude growth rate of the frog heart) / Results (class of heart-strengthening effect): positive control
Protocol: The preparation of in vitro isolated bullfrog heart was carried out according to the method recorded in the literature (Ding Hong, Experimental Pharmacology, pp. 504-506, Science Publishing House, 2008) as follows. Bullfrogs weighing 150-200 g, male and female, were used herein. At room temperature, the brain and spinal cord of the bullfrogs was destroyed with a metal probe, and then the chest wall of the bullfrogs was incised to expose the heart and the right aorta and the left aorta were each threaded with a wire. The right aorta was knotted directly, and the left aorta was cut with scissors in a “V” shaped incision. A frog heart cannula containing a small amount of Ringer's solution was inserted into the ventricle. The wire of the left aorta was attached and secured to the lateral hook of the cannula. The blood in the heart tube of the bullfrogs was repeatedly flushed with fresh Ringer's solution until the fluid was clear and colorless. The heart cannula was inserted into the ventricle and perfused with Ringer's solution. The bullfrog heart cannula was fixed on the iron stand with a clamp. The muscle tension transducer was fixedly arranged under the bullfrog heart cannula, and the isolated bullfrog heart was connected to the muscle tension transducer via a bullfrog heart clip and a wire. The volume of solution in the cannula was adjusted by 1.0 mL and the subject compound or an equivalent volume of a solvent was added to the cannula. The subject compound was evaluated for cardiac activity on isolated perfused frog hearts, and heart rate and contraction amplitude were recorded.
The cardiotonic effects of compounds 1-10 provided in the present disclosure on isolated bullfrog hearts in vitro were investigated, with deacetylmaurolidine and mesaconitine as positive controls.
The tested concentration of compounds 1-10 was 0.005 mol/L, and the tested concentrations of the positive controls, i.e., mesaconitine and deacetylmaurolidine, were 0.01 mol/L and 0.0002 mol/L, respectively.

DHPR = test: qPCR transcriptional level of DHPR in CoCl2-hypoxic H9c2 cells; type: cell-based; settings: CoCl2-induced hypoxia in H9c2 cells, FIG. 2B
Protocol: (§1) FIGS. 2B-F show transcriptional level results (detected by q-PCR) of calcium channel-related indicators in cardiomyocytes, where 2B: DHPR; 2C: RyR2; 2D: SERCA2a; 2E: NCX; and 2F: NHE.
(§2) In FIGS. 2A-F, the detection is performed in triplicate; ##P<0.01, ###P<0.001, and ####P<0.0001, indicating the significant difference from the control group; and *P<0.05, **P<0.01, ***P<0.001, and ****P<0.0001, indicating the significant difference from the CoCl2 group.
(§3) When cells experienced hypoxic injury, a large amount of reactive oxygen species (ROS) was released. DCFH-DA probe was used to label ROS in H9c2 cells, and 900 μM CoCl2 and different concentrations of cammconine (12.5, 25, 50 PM) were administered to detect the changes in ROS by flow cytometry and fluorescence inverted microscopy. […] Changes in ATPase activity after treating the cells with myocardial hypoxia with cammaconine were detected by a kit. […] Changes in the transcriptional level of the cardiomyocyte hypoxia key indicator HIF-1α and calcium cycle-related indicators were detected by qPCR.

NCX = test: qPCR transcriptional level of NCX in CoCl2-hypoxic H9c2 cells; type: cell-based; settings: CoCl2-induced hypoxia in H9c2 cells, FIG. 2E
Protocol: as §1, §2, §3

SERCA2a = test: qPCR transcriptional level of SERCA2a in CoCl2-hypoxic H9c2 cells; type: cell-based; settings: CoCl2-induced hypoxia in H9c2 cells, FIG. 2D
Protocol: as §1, §2, §3

RyR2 = test: qPCR transcriptional level of RyR2 in CoCl2-hypoxic H9c2 cells; type: cell-based; settings: CoCl2-induced hypoxia in H9c2 cells, FIG. 2C
Protocol: as §1, §2, §3

H9c2 cells = test: H9c2 cell viability by MTT assay, CoCl2-induced myocardial hypoxia; type: cell-based; settings: concentration of 6.25-50 M, FIG. 1A
NHE = test: qPCR transcriptional level of NHE in CoCl2-hypoxic H9c2 cells; type: cell-based; settings: CoCl2-induced hypoxia in H9c2 cells, FIG. 2F
Protocol: as §1, §2, §3

Na+/K+-ATPase = Na+/K+-ATPase activity in hypoxic cardiomyocytes (kit); type: cell-based; settings: concentration of 25 mol/L; CoCl2-induced hypoxia in H9c2 cells
Protocol: (§4) FIGS. 1B-C show an effect of the compound 1 on the Na^+/K^+-ATPase specific activity and Ca^2+/Mg^2+-ATPase activity of the hypoxic cardiomyocytes, where the test is performed in triplicate; ##P<0.01, ###P<0.001, and ####P<0.0001, indicating the significant difference from the control group; and *P<0.05, **P<0.01, ***P<0.001, and ****P<0.0001, indicating the significant difference from the CoCl2 group;
as §3

Ca2+/Mg2+-ATPase = Ca2+/Mg2+-ATPase activity in hypoxic cardiomyocytes (kit); type: cell-based; settings: concentration of 25 mol/L; CoCl2-induced hypoxia in H9c2 cells
Protocol: as §4, §3

HIF-1α = test: qPCR transcriptional level of HIF-1α in CoCl2-hypoxic H9c2 cells; type: cell-based; settings: CoCl2-induced hypoxia in H9c2 cells, FIG. 2A
Protocol: as §2, §3

[1] = tested on: reactive oxygen species (ROS) in H9c2 cells; test: ROS detection with DCFH-DA probe in CoCl2-hypoxic H9c2 cells; type: cell-based; settings: 12.5, 25, 50 PM; 900 μM CoCl2; flow cytometry and fluorescence microscopy
Protocol: FIGS. 1D-I show fluorescence detection results of reactive oxygen species (ROS) of different groups of H9c2 cells (scale bar: 20 μm), where 1D: control group; 1E: CoCl2 group; 1F: 50 μM-Trimetazidine group; 1G: 12.5 μM-Cammaconine group; 1H: 25 μM-Cammaconine group; and 11:50 μM-Cammaconine group;
as §3

[2] = read-out: Average increase rate (%) (average amplitude growth rate of the frog heart)
[3] = read-out: Results (class of heart-strengthening effect)
[4] = tested concentration 0.01 mol/L
[5] = tested concentration 0.0002 mol/L

| Molecule | Cardiotonic effect compared with the positive control (isolated bullfrog hearts) | activation at 5000 µM (isolated bullfrog hearts; [2]) [%] | activation at 5000 µM (isolated bullfrog hearts; [3]) [%] | also measured |
| --- | --- | --- | --- | --- |
| CCN1C[C@]2(CO)CC[C@H](OC)[C@@]34C5C[C@@H]6[C@@H](OC)C[C@@](O)(C5[C@H]6O)C(CC23)[C@@H]14 (stereo partly drawn) [Compound 1, cammaconine] | better cardiotonic effect; also recorded: significantly enhanced | 118 | > 60 | mRNA level of DHPR (DHPR): decreased; mRNA level of NCX (NCX): decreased; mRNA level of SERCA2a (SERCA2a): decreased; mRNA level of RyR2 (RyR2): decreased; Cardioprotective effect on H9c2 cells (cell viability, MTT) (H9c2 cells): certain cardioprotective effects; mRNA level of NHE (NHE): decreased; Na+/K+-ATPase activity (Na+/K+-ATPase): increase the enzyme activity; Ca2+/Mg2+-ATPase activity (Ca2+/Mg2+-ATPase): increase the enzyme activity; mRNA transcriptional level of HIF-1α (HIF-1α): decreased; Levels of ROS in H9c2 cells [1]: significantly reduced |
| CO[C@H]1C[C@@]2(O)C3C(C[C@H]1[C@@H]3O)[C@]13C4CC2[C@H]1N(C)C[C@]4(CO)CC[C@@H]3OC (stereo partly drawn) [Compound 2, N-deethyl-N-methyl cammaconine] | better cardiotonic effect; also recorded: significantly enhanced | 159 | > 60 | – |
| CO[C@H]1C[C@@]2(O)C3C(C[C@H]1[C@@H]3O)[C@]13C4CC2[C@H]1NC[C@]4(CO)CC[C@@H]3OC (stereo partly drawn) [Compound 3, N-deethyl cammaconine] | – | 36.8 | 31 to 60 | – |
| CCN1C[C@]2(CO)CC[C@H](OC)[C@@]34C5C[C@@H]6[C@@H](OC)C[C@@](O)(C5[C@H]6OC)C(CC23)[C@@H]14 (stereo partly drawn) [Compound 4, scaconine] | better cardiotonic effect; also recorded: significantly enhanced | 156 | > 60 | – |
| CCN1C[C@]2(CO)CC[C@H](OC)[C@@]34C5C[C@@H]6[C@@H](OC)C[C@@](OC)(C5[C@H]6O)C(CC23)[C@@H]14 (stereo partly drawn) [Compound 5, 8-O-methyl cammaconine] | – | 33.6 | 31 to 60 | – |
| CCN1C[C@]2(CO)CC[C@H](OC)[C@@]34C5C[C@@H]6[C@@H](OC)C[C@@](OC)(C5[C@H]6OC)C(CC23)[C@@H]14 (stereo partly drawn) [Compound 6, 8,14-O-dimethyl cammaconine] | – | 31.2 | 31 to 60 | – |
| CCN1C[C@]2(CO)CC[C@H](OC)[C@@]34C5C[C@H]6[C@H](O)C5[C@](O)(C[C@@H]6O)C(CC23)[C@@H]14 (stereo partly drawn) [Compound 7, 16-demethyl cammaconine] | better cardiotonic effect; also recorded: significantly enhanced | 75.2 | > 60 | – |
| CCO[C@]12C[C@H](OC)[C@H]3CC(C1[C@H]3O)[C@]13C4CC2[C@H]1N(CC)C[C@]4(CO)CC[C@@H]3OC (stereo partly drawn) [Compound 8, 8-O-ethyl cammaconine] | – | 57.2 | 31 to 60 | – |
| CCO[C@]12C[C@H](OC)[C@H]3CC(C1[C@H]3OC)[C@]13C4CC2[C@H]1N(CC)C[C@]4(CO)CC[C@@H]3OC (stereo partly drawn) [Compound 9, 8-O-ethyl, 14-O-methyl cammaconine] | – | 21.8 | 16 to 30 | – |
| CO[C@H]1C[C@@]2(O)C3C(C[C@H]1[C@@H]3OC)[C@]13C4CC2[C@H]1N(C)C[C@]4(CO)CC[C@@H]3OC (stereo partly drawn) [Compound 10, N-deethyl-N-methyl 14-O-methyl cammaconine] | better cardiotonic effect; also recorded: significantly enhanced | 148 | > 60 | – |
| COC[C@]12CN(C)[C@@H]3[C@@H]4[C@H](OC)[C@H]1[C@@]3([C@@H](OC)C[C@H]2O)[C@@H]1C[C@@]2(O)[C@H](OC(=O)c3ccccc3)[C@@H]1[C@]4(OC(C)=O)[C@@H](O)[C@@H]2OC [Mesaconitine, mesaconitine, reference compound] | – | – | – | Average increase rate (%) (average amplitude growth rate of the frog heart) (isolated bullfrog hearts; [4]): 70.7%; Results (class of heart-strengthening effect) (isolated bullfrog hearts; [4]): Strong (>60% (+++, strong)) |
| deacetylmaurolidine [reference compound] | – | – | – | Average increase rate (%) (average amplitude growth rate of the frog heart) (isolated bullfrog hearts; [5]): 61%; Results (class of heart-strengthening effect) (isolated bullfrog hearts; [5]): Strong (>60% (+++, strong)) |
